Measured values published in ChEMBL document CHEMBL3272130, “Synthesis and hypotensive activity of some cyclopentano-1,2,3,4-tetrahydroisoquinolines” (J Med Chem, 1977).

Tests used:
Rattus norvegicus [1] = test: Cardiovascular activity in deoxycorticosterone acetate treated hypertensive CD rat assessed as change in heart rate at 50 mg, ip after 2 hrs relative to control; type: ADME, organism-based; conditions: in vivo
[2] = Toxicity in ip dosed Swiss-Webster mouse after 24 hrs; type: organism-based; conditions: in vivo
Rattus norvegicus [3] = test: Hypotensive activity in deoxycorticosterone acetate treated hypertensive CD rat assessed as change in blood pressure at 50 mg, ip after 24 hrs relative to control; type: functional
Rattus norvegicus [4] = test: Hypotensive activity in deoxycorticosterone acetate treated hypertensive CD rat assessed as change in blood pressure at 50 mg, ip after 4 hrs relative to control; type: functional
Rattus norvegicus [5] = test: Hypotensive activity in deoxycorticosterone acetate treated hypertensive CD rat assessed as change in blood pressure at 50 mg, ip after 2 hrs relative to control; type: functional
Rattus norvegicus [6] = test: Cardiovascular activity in deoxycorticosterone acetate treated hypertensive CD rat assessed as change in heart rate at 50 mg, ip after 24 hrs relative to control; type: ADME, organism-based; conditions: in vivo
Rattus norvegicus [7] = test: Hypotensive activity in deoxycorticosterone acetate treated hypertensive CD rat assessed as change in blood pressure at 50 mg, ip after 1 hr relative to control; type: functional
Rattus norvegicus [8] = test: Cardiovascular activity in deoxycorticosterone acetate treated hypertensive CD rat assessed as change in heart rate at 50 mg, ip after 1 hr relative to control; type: ADME, organism-based; conditions: in vivo
Rattus norvegicus [9] = test: Cardiovascular activity in deoxycorticosterone acetate treated hypertensive CD rat assessed as change in heart rate at 50 mg, ip after 4 hrs relative to control; type: ADME, organism-based; conditions: in vivo
Rattus norvegicus [10] = test: Cardiovascular activity in deoxycorticosterone acetate treated hypertensive CD rat assessed as change in heart rate at 20 mg, ip after 24 hrs relative to control; type: ADME, organism-based; conditions: in vivo
Rattus norvegicus [11] = test: Cardiovascular activity in deoxycorticosterone acetate treated hypertensive CD rat assessed as change in heart rate at 20 mg, ip after 1 hr relative to control; type: ADME, organism-based; conditions: in vivo
Rattus norvegicus [12] = test: Hypotensive activity in deoxycorticosterone acetate treated hypertensive CD rat assessed as change in blood pressure at 20 mg, ip after 4 hrs relative to control; type: functional
Rattus norvegicus [13] = test: Cardiovascular activity in deoxycorticosterone acetate treated hypertensive CD rat assessed as change in heart rate at 100 mg, ip after 24 hrs relative to control; type: ADME, organism-based; conditions: in vivo
Rattus norvegicus [14] = test: Cardiovascular activity in deoxycorticosterone acetate treated hypertensive CD rat assessed as change in heart rate at 100 mg, ip after 4 hrs relative to control; type: ADME, organism-based; conditions: in vivo
Rattus norvegicus [15] = test: Hypotensive activity in deoxycorticosterone acetate treated hypertensive CD rat assessed as change in blood pressure at 100 mg, ip after 1 hr relative to control; type: functional
Rattus norvegicus [16] = test: Hypotensive activity in deoxycorticosterone acetate treated hypertensive CD rat assessed as change in blood pressure at 100 mg, ip after 2 hrs relative to control; type: functional
Rattus norvegicus [17] = test: Hypotensive activity in deoxycorticosterone acetate treated hypertensive CD rat assessed as change in blood pressure at 100 mg, ip after 24 hrs relative to control; type: functional
Rattus norvegicus [18] = test: Cardiovascular activity in deoxycorticosterone acetate treated hypertensive CD rat assessed as change in heart rate at 100 mg, ip after 2 hrs relative to control; type: ADME, organism-based; conditions: in vivo
Rattus norvegicus [19] = test: Hypotensive activity in deoxycorticosterone acetate treated hypertensive CD rat assessed as change in blood pressure at 20 mg, ip after 1 hr relative to control; type: functional
Rattus norvegicus [20] = test: Hypotensive activity in deoxycorticosterone acetate treated hypertensive CD rat assessed as change in blood pressure at 20 mg, ip after 24 hrs relative to control; type: functional
Rattus norvegicus [21] = test: Hypotensive activity in deoxycorticosterone acetate treated hypertensive CD rat assessed as change in blood pressure at 100 mg, ip after 4 hrs relative to control; type: functional
Rattus norvegicus [22] = test: Cardiovascular activity in deoxycorticosterone acetate treated hypertensive CD rat assessed as change in heart rate at 20 mg, ip after 2 hrs relative to control; type: ADME, organism-based; conditions: in vivo
Rattus norvegicus [23] = test: Hypotensive activity in deoxycorticosterone acetate treated hypertensive CD rat assessed as change in blood pressure at 20 mg, ip after 2 hrs relative to control; type: functional
Rattus norvegicus [24] = test: Cardiovascular activity in deoxycorticosterone acetate treated hypertensive CD rat assessed as change in heart rate at 100 mg, ip after 1 hr relative to control; type: ADME, organism-based; conditions: in vivo
Rattus norvegicus [25] = test: Cardiovascular activity in deoxycorticosterone acetate treated hypertensive CD rat assessed as change in heart rate at 20 mg, ip after 4 hrs relative to control; type: ADME, organism-based; conditions: in vivo
Rattus norvegicus [26] = test: Hypotensive activity in deoxycorticosterone acetate treated hypertensive CD rat assessed as change in blood pressure at 10 mg, ip after 4 hrs relative to control; type: functional
Rattus norvegicus [27] = test: Hypotensive activity in deoxycorticosterone acetate treated hypertensive CD rat assessed as change in blood pressure at 10 mg, ip after 2 hrs relative to control; type: functional
Rattus norvegicus [28] = test: Hypotensive activity in deoxycorticosterone acetate treated hypertensive CD rat assessed as change in blood pressure at 10 mg, ip after 24 hrs relative to control; type: functional
Rattus norvegicus [29] = test: Hypotensive activity in deoxycorticosterone acetate treated hypertensive CD rat assessed as change in blood pressure at 10 mg, ip after 1 hr relative to control; type: functional
Rattus norvegicus [30] = test: Cardiovascular activity in deoxycorticosterone acetate treated hypertensive CD rat assessed as change in heart rate at 10 mg, ip after 2 hrs relative to control; type: ADME, organism-based; conditions: in vivo
Rattus norvegicus [31] = test: Cardiovascular activity in deoxycorticosterone acetate treated hypertensive CD rat assessed as change in heart rate at 10 mg, ip after 24 hrs relative to control; type: ADME, organism-based; conditions: in vivo
Rattus norvegicus [32] = test: Cardiovascular activity in deoxycorticosterone acetate treated hypertensive CD rat assessed as change in heart rate at 10 mg, ip after 4 hrs relative to control; type: ADME, organism-based; conditions: in vivo
Rattus norvegicus [33] = test: Cardiovascular activity in deoxycorticosterone acetate treated hypertensive CD rat assessed as change in heart rate at 10 mg, ip after 1 hr relative to control; type: ADME, organism-based; conditions: in vivo

Q: With Br.CN1CCc2c(O)c(O)c3c(c2C1)CCC3 as the molecule, how does the Activity (Rattus norvegicus [1]) read?
A: 5.1%

Q: What about the LD50 at 24 h [2] of the same molecule?
A: 160 mg/kg

Q: And the Activity (Rattus norvegicus [3])?
A: -8.6%

Q: And the Activity (Rattus norvegicus [4])?
A: -5.7%

Q: What about the Activity (Rattus norvegicus [5]) of the same molecule?
A: -3.5%

Q: And the Activity (Rattus norvegicus [6])?
A: -8.6%

Q: And the Activity (Rattus norvegicus [7])?
A: -9.1%

Q: And the Activity (Rattus norvegicus [8])?
A: -1.9%

Q: What about the Activity (Rattus norvegicus [9]) of the same molecule?
A: 4.6%

Q: For COc1c2c(c3c(c1OC)CN(CC(c1ccccc1)c1ccccc1)CC3)CCC2, which Activity (Rattus norvegicus [10]) is on record?
A: -5%

Q: And the Activity (Rattus norvegicus [11])?
A: 7.4%

Q: What about the LD50 at 24 h [2] of the same molecule?
A: > 1000 mg/kg

Q: What about the Activity (Rattus norvegicus [12]) of the same molecule?
A: -2.9%

Q: What about the Activity (Rattus norvegicus [13]) of the same molecule?
A: -2.4%

Q: And the Activity (Rattus norvegicus [14])?
A: 2.4%

Q: What about the Activity (Rattus norvegicus [15]) of the same molecule?
A: -10.7%

Q: What about the Activity (Rattus norvegicus [16]) of the same molecule?
A: -12.7%

Q: And the Activity (Rattus norvegicus [17])?
A: -3.6%

Q: What about the Activity (Rattus norvegicus [18]) of the same molecule?
A: 2.4%

Q: And the Activity (Rattus norvegicus [19])?
A: 1.4%

Q: What about the Activity (Rattus norvegicus [20]) of the same molecule?
A: -3%

Q: What about the Activity (Rattus norvegicus [21]) of the same molecule?
A: -11.2%

Q: And the Activity (Rattus norvegicus [22])?
A: 10.7%

Q: What about the Activity (Rattus norvegicus [23]) of the same molecule?
A: 1.1%

Q: And the Activity (Rattus norvegicus [24])?
A: 8.7%

Q: What about the Activity (Rattus norvegicus [25]) of the same molecule?
A: 0.8%

Q: Which Activity (Rattus norvegicus [1]) does the source give for CC(=O)Oc1c2c(c3c(c1OC(C)=O)CN(C)CC3)CCC2.O=C(O)C(F)(F)F here?
A: 7.3%

Q: And the LD50 at 24 h [2]?
A: 200 mg/kg

Q: And the Activity (Rattus norvegicus [3])?
A: -5.1%

Q: What about the Activity (Rattus norvegicus [4]) of the same molecule?
A: -0.6%

Q: What about the Activity (Rattus norvegicus [5]) of the same molecule?
A: 5.2%

Q: What about the Activity (Rattus norvegicus [6]) of the same molecule?
A: 0.3%

Q: And the Activity (Rattus norvegicus [7])?
A: -13.1%

Q: And the Activity (Rattus norvegicus [8])?
A: 14.6%

Q: And the Activity (Rattus norvegicus [9])?
A: 2.6%

Q: For CC(=O)Oc1c2c(c3c(c1OC(C)=O)CCN(C)C3)CCC2, which LD50 at 24 h [2] is on record?
A: 150 mg/kg

Q: With COc1ccc(CN2CCc3c4c(c(OC)c(OC)c3C2)CCC4)cc1OC.Cl as the molecule, how does the Activity (Rattus norvegicus [1]) read?
A: 9%

Q: And the LD50 at 24 h [2]?
A: 141 mg/kg

Q: And the Activity (Rattus norvegicus [3])?
A: 0.9%

Q: What about the Activity (Rattus norvegicus [4]) of the same molecule?
A: -0.7%

Q: And the Activity (Rattus norvegicus [5])?
A: -4.2%

Q: And the Activity (Rattus norvegicus [6])?
A: -1.3%

Q: What about the Activity (Rattus norvegicus [7]) of the same molecule?
A: -8.8%

Q: And the Activity (Rattus norvegicus [8])?
A: 13%

Q: And the Activity (Rattus norvegicus [9])?
A: 10.2%

Q: What does the source list for COc1c2c(c3c(c1OC)CCN(CC(c1ccccc1)c1ccccc1)C3)CCC2?
A: LD50 at 24 h [2]: > 1000 mg/kg; Activity (Rattus norvegicus [13]): -0.5%; Activity (Rattus norvegicus [14]): 8.6%; Activity (Rattus norvegicus [15]): -5%; Activity (Rattus norvegicus [16]): -3.4%; Activity (Rattus norvegicus [17]): 4%; Activity (Rattus norvegicus [18]): 25.4%; Activity (Rattus norvegicus [21]): -2%; Activity (Rattus norvegicus [24]): 18.5%

Q: Which results are given for COc1ccc(C(=O)N2CCc3c(c4c(c(OC)c3OC)CCC4)C2)cc1OC?
A: LD50 at 24 h [2]: > 1000 mg/kg; Activity (Rattus norvegicus [13]): -6.5%; Activity (Rattus norvegicus [14]): -1.2%; Activity (Rattus norvegicus [15]): -12.1%; Activity (Rattus norvegicus [16]): -8.8%; Activity (Rattus norvegicus [17]): -6%; Activity (Rattus norvegicus [18]): 3.4%; Activity (Rattus norvegicus [21]): -3.4%; Activity (Rattus norvegicus [24]): 0.2%

Q: For Br.CN1CCc2c(c(O)c(O)c3c2CCC3)C1, which Activity (Rattus norvegicus [1]) is on record?
A: 4.8%

Q: What about the LD50 at 24 h [2] of the same molecule?
A: 150 mg/kg

Q: And the Activity (Rattus norvegicus [3])?
A: -3.6%

Q: And the Activity (Rattus norvegicus [4])?
A: 3%

Q: What about the Activity (Rattus norvegicus [5]) of the same molecule?
A: 2.6%

Q: What about the Activity (Rattus norvegicus [6]) of the same molecule?
A: 3%

Q: And the Activity (Rattus norvegicus [7])?
A: -1.1%

Q: What about the Activity (Rattus norvegicus [8]) of the same molecule?
A: 8.2%

Q: And the Activity (Rattus norvegicus [9])?
A: 4.1%

Q: Which Activity (Rattus norvegicus [10]) does the source give for COc1c2c(c3c(c1OC)CNCC3)CCC2 here?
A: 7.4%

Q: What about the Activity (Rattus norvegicus [11]) of the same molecule?
A: 10.2%

Q: And the Activity (Rattus norvegicus [26])?
A: -14.2%

Q: And the LD50 at 24 h [2]?
A: 79 mg/kg

Q: And the Activity (Rattus norvegicus [12])?
A: -3.9%

Q: And the Activity (Rattus norvegicus [3])?
A: -16.8%

Q: What about the Activity (Rattus norvegicus [27]) of the same molecule?
A: -3.4%

Q: And the Activity (Rattus norvegicus [28])?
A: -7.2%

Q: And the Activity (Rattus norvegicus [6])?
A: -3.8%

Q: And the Activity (Rattus norvegicus [29])?
A: -3.1%

Q: What about the Activity (Rattus norvegicus [30]) of the same molecule?
A: 8.1%

Q: And the Activity (Rattus norvegicus [19])?
A: -3.9%

Q: What about the Activity (Rattus norvegicus [20]) of the same molecule?
A: -0.2%

Q: And the Activity (Rattus norvegicus [22])?
A: 16.9%

Q: And the Activity (Rattus norvegicus [23])?
A: -4%

Q: What about the Activity (Rattus norvegicus [31]) of the same molecule?
A: -9.1%

Q: And the Activity (Rattus norvegicus [32])?
A: 3.9%

Q: And the Activity (Rattus norvegicus [25])?
A: 11%

Q: And the Activity (Rattus norvegicus [33])?
A: 5.8%

Q: What does the source list for COc1c2c(c3c(c1OC)CN(CCC(c1ccccc1)c1ccccc1)CC3)CCC2?
A: LD50 at 24 h [2]: 1000 mg/kg; Activity (Rattus norvegicus [13]): 0.6%; Activity (Rattus norvegicus [14]): 0.8%; Activity (Rattus norvegicus [15]): -3.5%; Activity (Rattus norvegicus [16]): -7.9%; Activity (Rattus norvegicus [17]): -7%; Activity (Rattus norvegicus [18]): 4.6%; Activity (Rattus norvegicus [21]): -6.7%; Activity (Rattus norvegicus [24]): 4%

Q: What does the source list for COc1c2c(c3c(c1OC)CN(C(=O)CC(c1ccccc1)c1ccccc1)CC3)CCC2?
A: Activity (Rattus norvegicus [10]): -1.8%; Activity (Rattus norvegicus [11]): 16.8%; LD50 at 24 h [2]: 100 mg/kg; Activity (Rattus norvegicus [12]): -5%; Activity (Rattus norvegicus [19]): -4.4%; Activity (Rattus norvegicus [20]): -2.1%; Activity (Rattus norvegicus [22]): 15.8%; Activity (Rattus norvegicus [23]): -6.9%; Activity (Rattus norvegicus [25]): 2.4%
